According to patent publication US20240389596A1, “INSECT, ACARINA AND NEMATODE PEST CONTROL” (priority 2021, published 2024):

System: Spodoptera littoralis (Egyptian cotton leaf worm)
Test: Spodoptera littoralis (Egyptian cotton leaf worm) feeding/contact activity assay on cotton leaf discs
Type: in vivo
Settings: for Mortality (%) Expected (%): component B alone, value printed in the Expected column; for Mortality (%) Observed (%): single active ingredient, L1 larvae, 3 days after infestation
From the text: A synergistic effect exists whenever the action of an active ingredient combination is greater than the sum of the actions of the individual components. The action to be expected E for a given active ingredient combination obeys the so-called COLBY formula and can be calculated as follows (COLBY, S. R. “Calculating synergistic and antagonistic responses of herbicide combination”. Weeds, Vol. 15, pages 20-22 1967):
ppm=milligrams of active ingredient (a.i.) per liter X=% action by first active ingredient using p ppm of the active ingredient Y=% action by second active ingredient using q ppm of the active ingredient.
According to Colby, the expected (additive) action of active ingredients A+B using p+q ppm of active ingredient is
If the action actually observed O is greater than the expected action E, then the action of the combination is super-additive, i.e. there is a synergistic effect. In mathematical terms, synergism corresponds to a positive value for the difference of (O-E). In the case of purely complementary addition of activities (expected activity), said difference (O-E) is zero. A negative value of said difference (O-E) signals a loss of activity compared to the expected activity.
The synergistic biological activity of combinations of component (A) and component (B) as disclosed herein was assessed using a Spodoptera littoralis (Egyptian cotton leaf worm) feeding/contact activity assay. Cotton leaf discs were placed onto agar in 24-well microtiter plates and sprayed with aqueous test solutions prepared from 10′000 ppm DMSO stock solutions. After drying the leaf discs were infested with L1 larvae. The samples were assessed for mortality 3 days after infestation.

**Q.** For `Cc1cc(Cl)cc(C)c1C1=C(O)C2(CCC3(CC2)OCCO3)NC1=O` [B-18, spidoxamat], which “Mortality (%) Expected (%)” value ([AI] 7.812 mg/L) is on record?
**A.** Its value is 0%.

**Q.** And the “Mortality (%) Expected (%)” value ([AI] 15.625 mg/L)?
**A.** The value was 0%.

**Q.** And the “Mortality (%) Expected (%)” value ([AI] 31.25 mg/L)?
**A.** Its value is 0%.

**Q.** How did the “Mortality (%) Observed (%)” value ([AI] 0.625 mg/L) turn out when `CCS(=O)(=O)c1cccnc1-c1cnc(OCC(F)(F)C(F)(F)F)cn1` [B-10, 2-(3-ethylsulfonyl-2-pyridyl)-5-(2,2,3,3,3-pentafluoropropoxy)pyrazine] was run?
**A.** The value was 0%.

**Q.** And the “Mortality (%) Observed (%)” value ([AI] 1.25 mg/L)?
**A.** Its value is 10%.

**Q.** And the “Mortality (%) Observed (%)” value ([AI] 2.5 mg/L)?
**A.** Its value is 50%.

**Q.** And the “Mortality (%) Observed (%)” value ([AI] 5 mg/L)?
**A.** The value was 100%.

**Q.** And the “Mortality (%) Observed (%)” value ([AI] 10 mg/L)?
**A.** Its value is 100%.

**Q.** How did the “Mortality (%) Observed (%)” value ([AI] 15.625 mg/L) turn out when `CCN(C(=O)c1cnn(C(C)C(C)C)c1C)c1ccnnc1` (stereo not drawn) [B-17, dimpropyridaz] was run?
**A.** The value was 0%.

**Q.** And the “Mortality (%) Observed (%)” value ([AI] 31.25 mg/L)?
**A.** The value was 0%.

**Q.** And the “Mortality (%) Observed (%)” value ([AI] 62.5 mg/L)?
**A.** The value was 0%.

**Q.** And the “Mortality (%) Observed (%)” value ([AI] 125 mg/L)?
**A.** The value was 0%.

**Q.** `O=c1c(-c2cccc(C(F)(F)F)c2)c([O-])[n+](Cc2cncnc2)c2ccccn12` [B-42, triflumezopyrim] was tested. Which “Mortality (%) Observed (%)” value ([AI] 15.625 mg/L) did it give?
**A.** Its value is 0%.

**Q.** And the “Mortality (%) Observed (%)” value ([AI] 31.25 mg/L)?
**A.** The value was 0%.

**Q.** And the “Mortality (%) Observed (%)” value ([AI] 62.5 mg/L)?
**A.** Its value is 0%.

**Q.** And the “Mortality (%) Observed (%)” value ([AI] 125 mg/L)?
**A.** The value was 20%.

**Q.** What about the “Mortality (%) Observed (%)” value ([AI] 250 mg/L) of the same molecule?
**A.** Its value is 20%.

**Q.** Which “Mortality (%) Observed (%)” value ([AI] 0.016 mg/L) does the source give for `O=C(Nc1ccc(F)c(NC(=O)C(F)F)c1F)c1cc(NC(=O)[C@H]2[C@H](c3cc(C(F)(F)F)cc(C(F)(F)F)c3)C2(Cl)Cl)ccc1Cl` [A-1] here?
**A.** The value was 0%.

**Q.** What about the “Mortality (%) Observed (%)” value ([AI] 0.031 mg/L) of the same molecule?
**A.** The value was 0%.

**Q.** And the “Mortality (%) Observed (%)” value ([AI] 0.062 mg/L)?
**A.** Its value is 0%.

**Q.** And the “Mortality (%) Observed (%)” value ([AI] 0.125 mg/L)?
**A.** Its value is 0%.

**Q.** And the “Mortality (%) Observed (%)” value ([AI] 0.25 mg/L)?
**A.** The value was 80%.

**Q.** What about the “Mortality (%) Observed (%)” value ([AI] 0.5 mg/L) of the same molecule?
**A.** Its value is 100%.

**Q.** With `C[n+]1c([O-])c(-c2ccccc2)c(=O)n2c1SC[C@@H]2c1cnc(Cl)s1` [B-4, fenmezoditiaz] as the molecule, how does the “Mortality (%) Observed (%)” value ([AI] 15.625 mg/L) read?
**A.** Its value is 0%.

**Q.** What about the “Mortality (%) Observed (%)” value ([AI] 31.25 mg/L) of the same molecule?
**A.** The value was 0%.

**Q.** And the “Mortality (%) Observed (%)” value ([AI] 62.5 mg/L)?
**A.** Its value is 0%.

**Q.** What does the source list for `CC(c1ccc(C(F)(F)F)nc1)S(C)(=O)=NC#N` (stereo not drawn) [B-55, sulfoxaflor]?
**A.** Mortality (%) Observed (%) ([AI] 62.5 mg/L): 0%; Mortality (%) Observed (%) ([AI] 125 mg/L): 0%; Mortality (%) Observed (%) ([AI] 250 mg/L): 10%

**Q.** Which “Mortality (%) Observed (%)” value ([AI] 0.062 mg/L) does the source give for `CNC(=O)c1cc(Cl)cc(C)c1NC(=O)c1cc(Br)nn1-c1ncccc1Cl` [B-46, chlorantraniliprole] here?
**A.** The value was 0%.

**Q.** And the “Mortality (%) Observed (%)” value ([AI] 0.125 mg/L)?
**A.** The value was 0%.

**Q.** And the “Mortality (%) Observed (%)” value ([AI] 0.25 mg/L)?
**A.** Its value is 0%.

**Q.** What about the “Mortality (%) Observed (%)” value ([AI] 0.5 mg/L) of the same molecule?
**A.** Its value is 100%.
